Where two headings read alike, the source gives them in different places.
Tests used:
[1] = Time course of Sc(III) complex formation, 45Sc NMR; format: physicochemical
Description: The time course of complex formation of PC2AM^nBu and PCTA ligands with Sc(III) ion was investigated by ^45Sc‐NMR under acidic conditions (cSc = cligand = 10 mM and 9.5 mM, respectively, ‐log[H^+] = 1.28). The decrease of the narrow signal of the free Sc(III) ion was monitored as a function of time. […] The kinetic measurements of formation could be seen in Figures S18 and S19. The complexation for the [Sc(PCTA)] chelate at pH = 1.28 and 25 °C took about 300 minutes to reach the equilibrium, whereas for the [Sc(PC2AM^nBu)]^+ complex it took a bit longer time under these conditions. (In order to confirm that the samples reached the equilibrium, we have repeated the ^45Sc NMR study for both samples after a few days when the signal of the free Sc(III) was absent, and only the signals of the complexes were detected.) The detailed study of formation kinetics was not our aim in this project. One can expect that the reaction follows the well‐known mechanisms of M(III) ‐ macrocyclic APC systems ^[ [54] ^]: formation of a protonated intermediate in fast pre‐equilibrium followed by a slow, base‐catalyzed deprotonation/structural rearrangement as a rate‐determining step. The intermediate is named also as “out‐of‐cage complex.”^[ [55] ^] Our experimental curves are likely in accordance with this mechanism. Fitting the measured data for the free Sc(III) signals by a monoexponential function gives the rate constant k obs = (1.04 ± 0 .05) x 10^−4 s^−1 for the [Sc(PC2AM^nBu)]^+ and k obs = (2.51 ± 0.12) x 10^−4 s^−1 for the [Sc(PCTA)] complex. […] The relatively fast complex formation at the given acidic condition is very encouraging for the Sc(III) labeling experiments.
^45Sc NMR measurements (97 MHz) were performed on a Bruker DRX 400 (9.4 T) spectrometer equipped with a Bruker VT‐1000 thermocontroller and a BB inverse z‐gradient probe (5 mm). The kinetic experiments were performed at 25 °C in aqueous solution, using D2O (10% v/v) as a lock solvent. Typical parameters for 45Sc NMR measurements were used: TD = 32k, p1 = 15.6 µs (90°), d 1 = 0.1 s. The formation reactions of the [Sc(PC2AM^nBu)]^+ and [Sc(PCTA)] complexes were monitored by ^45Sc NMR spectroscopy in two sample types: one containing 10.0 mM PC2AM^nBu and ScCl3 / 9.5 mM […] and ScCl3. In both cases, the total acid concentration corresponded to a pH of 1.28. Obtained monoexponential curves (signal area of free Sc(III) vs. time) were fitted using Scientist software ^[ [62] ^] to determine the formation rate.

[2] = cited from earlier work
[3] = Stability constants of Sc(III) complexes, out‐of‐cell (batch) samples, 45Sc NMR; format: physicochemical; conditions: for AL/M (relative affinity): [Sc(III)]total = 10 nM, [L]tot = 100 nM
Description: The stability constant of the complex of PC2AM^nBu ligand formed with Sc(III) ion was studied using “out‐of‐cell” (batch) samples using ^45Sc NMR spectroscopy in strongly acidic media. Typical ^45Sc NMR spectra are shown in Figure 5 along with the corresponding ^1H NMR spectra of the aromatic region of the ligand.
Using the ^45Sc NMR signal intensities of free Sc^3+ measured in the equilibrated samples, the stability constant, K ScL, was calculated by fitting the areas with the PSEQUAD program ^[ [47] ^] (Figure 6). The best fitting was observed by considering the simplest model including only [Sc(PC2AM^nBu)]^+ species; that is, the formation of protonated [Sc(HPC2AM^nBu)]^2+ cannot be confirmed.
The stability constant of the [Sc(PCTA)] complex was determined in a similar way (Figure S13). The results were summarized in Table 2, including the data of [Sc(DO3AM‐NI)], determined in our previous study.^[ [33] ^]
Among the complexes shown in Table 2, the [Sc(DO3AM‐NI)] complex has the highest stability, but its stability constant is lower than the corresponding values of [Sc(DOTA)]^− (log K ScL = 30.79) and [Sc(DTPA)]^2− (log K ScL = 27.43). ^[ [49] ^] As evidenced for DO3AM‐mono(amide) the replacement of acetate side chains with amide groups results in a decrease in stability constant (and conditional stability); therefore, we can see an order of magnitude difference between the stabilities of [Sc(PCTA)] and [Sc(PC2AM^nBu)]^+. Although these K ScL constants and pSc values are somewhat lower than those of the complexes formed with traditional DOTA and DTPA ligands, these chelators remain remarkably good Sc(III)‐binding chelators. […] Therefore, following the proposal of M. Meyer and colleagues,^[ [48] ^] […] For the AL/M values, 1 corresponds to 90%, 2 corresponds to 99%, 3 corresponds to 99.9% etc. for complex formation. […] The AL/M data of the [Sc(PC2AM^nBu)]^+ complex only exceeds that of the [Sc(DO3AM‐NI)] complex in the pH < 3.0 range, which can be advantageous for labeling at low pH. Furthermore, based on the data in Table 2, it can be concluded that for these systems there is no discrepancy between the trends observed in the pSc and AL/M values.
The stability constant of [Sc(PC2AM^nBu)]^+ and [Sc(PCTA)] complexes was studied using “out‐of‐cell” (batch) samples using ^45Sc and ^1H NMR spectroscopy. The NMR spectra were obtained using a Bruker Avance II DRX spectrometer (9.4 T), equipped with Bruker Variable Temperature Unit, Bruker Cooling Unit, and a 5 mm BB inverse z gradient probe. For the investigation of [Sc(PC2AMnBu)]⁺, twelve samples (cSc(III) = 3.00 mM, cligand = 3.06 mM, in the pH range of –log[H^+] = 0.1–1.3; I = 1.0 M NaCl/HCl) were prepared in NMR tubes and kept at 25 °C for one week to reach equilibrium. During this period, ^1H and ^45Sc NMR measurements were performed daily to monitor changes in signal intensities. No significant changes were detected after one week, even in the most acidic sample. The intensities of the free Sc(III) signals were normalized using a standard 50 mM ScCl3 solution containing 1 M HCl (20% D2O). For the determination of the stability of the [Sc(PCTA)] complex, eleven “batch” samples (cSc(III) = 4.00 mM, cligand = 4.08 mM), in the pH range of –log[H^+] = 0.1–1.25, were prepared. The evaluation of the measured data was performed using the PSEQUAD program.^[ [47] ^] Samples were prepared in H2O, with 10% D2O added for deuterium lock. The actual resonance frequencies for ^1H, ^13C, ^19F, and ^45Sc are indicated in the text and figure captions. The chemical shifts of ^1H and ^13C were calibrated using an external TMS standard, while ^19F was referenced to CCl3F. The ^45Sc NMR shift was calibrated to 0 ppm using a 5 mM solution of ScCl3 in 0.1 M HCl.

[4] = I = 0.15 M NaCl, T = 25 °C; cited from earlier work
[5] = pH‐potentiometric determination of ligand protonation constants; format: physicochemical; conditions: T = 25 °C
Description: The equilibrium study of the PC2AM^nBu ligand has been started by determining the protonation constants in 0.15 M and 1.00 M NaCl ionic strength. (As the stability of the Sc(III) complex was determined in 1.00 M ionic strength, we had to perform the pH‐potentiometric titration of ligands using 1.00 M ionic strengths also.) The results of pH‐potentiometric measurement are shown in Table 1, where the corresponding data for 3,9‐PC2A,^[ [42] ^] PCTA ^[ [46] ^] and PC2AM‐NI ligands determined under identical conditions are also presented. Knowledge of the protonation constants defined by Eqn. 1 and 2 are essential for the calculation of the stability constants of the Sc(III) complexes:
(1) PC2AM^nBu^2−+nH^+⇌Hn(PC2AM^nBu)^−2+n (2) βn=HnPC2AM^nBu^−2+n/PC2AM^nBu^2−H^+^n
The protonation constants of the ligands, as well as the concentrations of the ligand stock solutions, were determined by pH‐potentiometric method using a Metrohm 785 DMP Titrino automatic titrator using a Metrohm 6.00234.100 combined glass electrode. The titrations were carried out in the pH range 1.75–11.80 and the pH electrode was calibrated by a two‐point calibration routine with the use of 0.05 M KH‐phthalate (pH = 4.005) and 0.01 M borax (pH = 9.177 buffers. The samples were stirred at 25 °C (±0.1 °C) and N2 gas bubbled into the system to ensure inert conditions and to eliminate the effect of the presence of CO2. For the calculation of [H^+] from the measured pH values, the method proposed by Irving et al. was applied.^[ [61] ^] For this, a 0.01 M HCl solution was titrated with the standardized NaOH solution in the presence of 0.15 M NaCl ionic strength at 25 °C. The differences between the measured (pHread) and calculated pH (‐log[H^+]) values were used to obtain the equilibrium H^+ concentration from the pHmeas values during the titrations. By fitting the resulting titration curves (pH – V (NaOH) data pairs) with the PSEQUAD program, the protonation constants of the ligands were determined.^[ [47] ^] The titration of the [Sc(PC2AM^nBu)]^+ with NaOH was performed with the same method by applying very similar conditions.

[6] = Acid‐assisted dissociation (decomplexation) of Sc(III) complexes, UV spectroscopy; format: physicochemical; conditions: dissociation of the Sc(III) complex, 1.6‐2.6 M HClO4, 25 °C, I = 2.6 M
Excerpt: The inertness of metal complexes is a basic requirement in all relevant modalities of medical imaging. Complexes of macrocyclic ligands are often more inert compared to open‐chain analogs. In order to assess the behavior of our complexes, the decomplexation of [Sc(PC2AM^nBu)]^+ and [Sc(PCTA)] was studied in a strongly acidic medium (cH + = 1.6 ‐ 2.6 M HClO4) by using UV spectroscopy. […] The primary Abs. versus time curves have been fitted by monoexponential function returning kobs (s^−1) values (Figures S22 and S23).
The plots of the rate constants as a function of acid concentration yielded linear relationships for both complexes (k obs = k 0 + k 1[H^+]). The slopes of these lines correspond to the rate coefficients characteristic for acid‐assisted dissociation (k 1), whereas the intercepts characterize the acid‐independent part, often referred to as a rate of spontaneous dissociation. […] The rate coefficients obtained during the fitting are summarized in Table 3, along with the half‐lives calculated from the rate coefficients by using 1 M acid concentration (t ½ = ln 2 / k obs).
Kinetic studies of the dissociation of the [Sc(PC2AMnBu)]^+ and [Sc(PCTA)] complexes were carried out by examining the dependence of the dissociation rates on acid concentration. Spectrophotometric measurements were conducted on a JASCO V‐760 spectrophotometer at λ = 280 nm. The concentration of the complex in the sample was 0.30 mM, and HClO4 was applied in concentrations ranging from 1.6 to 2.6 M. The evaluation of the measured data was performed with Scientist software ^[ [62] ^] to determine the k 0 (spontaneous) and k 1 (acid‐assisted) reaction rates.

O=C([O-])CN1CCN(CC(=O)[O-])Cc2cccc(n2)CN(CC(=O)[O-])CC1.[Sc+3] [[Sc(PCTA)]]
time of complexation to reach the equilibrium ([1]; pH = 1.28, 25 °C): about 300 minutes
half‐life of the complex formation reaction (t 1/2 = ln2 / k obs) ([1]; ‐log[H^+] = 1.28, 25 °C): 46 min
k obs of complex formation ([1]; ‐log[H^+] = 1.28, 25 °C, cSc = cligand = 10 mM (PC2AM^nBu) or 9.5 mM (PCTA), monoexponential fit of free Sc(III) signal): (2.51 ± 0.12) x 10^−4 s^−1

O=C([O-])CN(CCN(CC(=O)[O-])CC(=O)[O-])CCN(CC(=O)[O-])CC(=O)[O-].[Sc+3] [[Sc(DTPA)]^2−]
log K ScL ([2]; literature stability constant): 27.43

O=C([O-])CN1CCN(CC(=O)[O-])CCN(CC(=O)[O-])CCN(CC(=O)[O-])CC1.[Sc+3] [[Sc(DOTA)]^−]
log K ScL ([2]; literature stability constant): 30.79

O=C(O)CN1CCN(CC(=O)O)CCN(CC(=O)NCCn2ccnc2[N+](=O)[O-])CCN(CC(=O)O)CC1 [DO3AM‐NI]
AL/M (relative affinity) ([3]; pH = 7.4, I = 0.15 M NaCl, calculated from constants of ref 33): 6.57
log β 2 ^H [4]: 17.38
pSc ([2]; pSc = ‐log[Sc(III)]free, cSc(III) = 1x10^−8 M, clig = 1x10^−7 M, pH = 7.4, I = 0.15 M NaCl): 20.74
log K ScL ([2]; stability constant of the Sc(III) complex, I = 0.15 M NaCl, T = 25 °C): 22.36

CCCCNC(=O)CN1CCN(CC(=O)O)Cc2cccc(n2)CN(CC(=O)O)CC1 [PC2AM^nBu]
log K 1 ^H ([5]; I = 0.15 M NaCl): 8.79(1)
log K 2 ^H ([5]; I = 0.15 M NaCl): 7.59(1)
log K 3 ^H ([5]; I = 0.15 M NaCl): 2.31(2)
log K 4 ^H ([5]; I = 0.15 M NaCl): 1.28(3)
log β 2 ^H ([5]; I = 0.15 M NaCl): 16.38
log K 1 ^H ([5]; I = 1.00 M NaCl): 8.13(2)
log K 2 ^H ([5]; I = 1.00 M NaCl): 7.59(1)
log K 3 ^H ([5]; I = 1.00 M NaCl): 2.52(1)
log β 2 ^H ([5]; I = 1.00 M NaCl): 15.72
AL/M (relative affinity) ([3]; pH = 7.4, I = 1.00 M NaCl): 5.17
pSc ([3]; pSc = ‐log[Sc(III)]free, cSc(III) = 1x10^−8 M, clig = 1x10^−7 M, pH = 7.4, I = 1.00 M NaCl): 19.32
log K ScL ([3]; stability constant of the Sc(III) complex, I = 1.00 M NaCl, T = 25 °C): 19.53(4)
k 0 (spontaneous dissociation) [6]: 0 s⁻¹
k 1 (acid‐assisted dissociation) [6]: (3.64 ± 0.08) x 10^−7 M^−1s^−1

— publication PMC12731536, “Sc(III) Complexes of Pyclen Derivative Ligands as Probes for Hypoxia: Synthesis, Chemical Characterization, ^44Sc‐Radiolabeling, and Preclinical Assessment” (Chemistry (Weinheim an Der Bergstrasse, Germany), 2025)
